{"source": "patent US12109207B2", "about": "“Methods of using 4(1H)-quinolone derivatives” (Academia Sinica, priority 2019, dated 2024)", "key": {"CL1-0": {"tested_on": "CL1-0", "test": "Cell cytotoxicity assay (MTS), CL1-0", "assay_type": "cell-based", "conditions": "Homo sapiens, CL1-0, 72 h", "experimental": "(§1) Cells were seeded into the wells of 96-well plates (2000 cells/well). After an overnight culture, the cells were treated with different concentrations of a compound for 72 h. The CellTiter 96 AQueous one-solution cell proliferation assay (MTS) reagent was used to determine cytotoxicity. After treatment with a compound, 20 μL of the MTS reagent was added to each well and the plates were incubated at 37° C. for 1-4 h. Next, the absorbance at 490 nm of the culture medium in each well was determined using a VersaMax microplate reader (Molecular Devices)."}, "SAS": {"tested_on": "SAS", "test": "Cell cytotoxicity assay (MTS), SAS", "assay_type": "cell-based", "conditions": "Homo sapiens", "experimental": "as §1"}, "Purified porcine tubulin": {"target": "T1, Purified porcine tubulin (Sus scrofa, UniProt P02554)", "T1 construct": "purchased Cytoskeleton", "T1 sequence (P02554 whole entry)": "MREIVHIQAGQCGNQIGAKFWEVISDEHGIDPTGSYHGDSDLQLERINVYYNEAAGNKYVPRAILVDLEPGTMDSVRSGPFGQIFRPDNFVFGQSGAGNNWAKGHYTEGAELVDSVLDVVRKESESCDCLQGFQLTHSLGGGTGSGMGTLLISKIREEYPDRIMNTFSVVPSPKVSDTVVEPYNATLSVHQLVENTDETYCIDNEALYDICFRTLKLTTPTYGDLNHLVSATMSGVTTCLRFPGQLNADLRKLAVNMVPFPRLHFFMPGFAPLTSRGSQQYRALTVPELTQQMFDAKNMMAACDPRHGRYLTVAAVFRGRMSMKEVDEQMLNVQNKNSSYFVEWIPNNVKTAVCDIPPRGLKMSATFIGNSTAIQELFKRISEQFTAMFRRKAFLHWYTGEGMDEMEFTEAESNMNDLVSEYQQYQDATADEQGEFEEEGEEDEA", "T1 sequence (P02550 whole entry partner)": "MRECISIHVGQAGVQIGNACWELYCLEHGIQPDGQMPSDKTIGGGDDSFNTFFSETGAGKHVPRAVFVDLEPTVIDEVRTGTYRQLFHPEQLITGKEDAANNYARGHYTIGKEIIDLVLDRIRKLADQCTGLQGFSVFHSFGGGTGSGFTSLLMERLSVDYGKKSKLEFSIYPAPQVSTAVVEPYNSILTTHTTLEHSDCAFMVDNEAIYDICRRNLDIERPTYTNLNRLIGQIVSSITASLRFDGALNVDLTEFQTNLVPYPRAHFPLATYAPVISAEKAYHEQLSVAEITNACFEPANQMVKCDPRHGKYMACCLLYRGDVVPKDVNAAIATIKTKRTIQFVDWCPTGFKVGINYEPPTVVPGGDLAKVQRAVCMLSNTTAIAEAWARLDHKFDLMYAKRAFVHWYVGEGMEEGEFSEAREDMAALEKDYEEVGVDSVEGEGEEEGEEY", "test": "In vitro tubulin polymerization assay", "assay_type": "biochemical", "conditions": "5 μM, A340 every min for 1 h at 37° C.", "experimental": "Reagents from a Tubulin Polymerization Assay kit (Cytoskeleton) were used according to the manufacturer's instructions. Purified porcine tubulin (4 mg/mL; >99% purity) in G-PEM buffer (80 mM PIPES, 2 mM MgCl2, 0.5 mM EGTA, 1 mM GTP, 15% glycerol, pH 6.9) was mixed with each test compound in the wells of a 96-well plate. Then, the A340 value was recorded each minute for 1 h at 37° C. with the VersaMax microplate reader."}, "IGR-OV1": {"tested_on": "IGR-OV1", "test": "Cell cytotoxicity assay (MTS), IGR-OV1", "assay_type": "cell-based", "conditions": "Homo sapiens, IGROV-1", "experimental": "as §1"}, "CL1-0 and H1975 cells": {"tested_on": "CL1-0 and H1975 cells", "test": "Pro-apoptotic protein immunoblotting, cancer cells", "assay_type": "cell-based, human", "conditions": "24 to 72 h", "experimental": "(§2) The cells were harvested and lysed in RIPA buffer (20 mM Tris-HCl, 150 mM NaCl, 1 mM Na2EDTA, 1% sodium deoxycholate, 1% IGEPAL CA-630, 0.1% SDS, pH 7.5) with protease inhibitors (Roche). Protein concentration was measured by the BCA assay. For immunoprecipitation, protein extracts were incubated with mag-beads-AS1712 or mag-beads-control at 4° C. overnight and then washed five times with PBS before immunoblotting. For immunoblotting, equivalent amounts of denatured proteins were separated through SDS-PAGE gels and then transferred to PVDF membranes (Millipore), which were each blocked with 5% nonfat milk in PBS and 0.1% Tween-20 (Sigma Aldrich) for 1 h. Then each membrane was incubated with a primary antibody overnight at 4° C., followed by incubation with a horseradish peroxidase conjugated secondary antibody for 1 h at room temperature. The signal was visualized by enhanced chemiluminescence detection, and images were acquired using a BioSpectrum Imaging System (UVP)."}, "OECM1": {"tested_on": "OECM1", "test": "Cell cytotoxicity assay (MTS), OECM1", "assay_type": "cell-based", "conditions": "Homo sapiens", "experimental": "as §1"}, "[1]": {"test": "Body mass and serum biochemical markers, H1975 xenograft mice", "assay_type": "in vivo, BALB/c nude mice", "conditions": "for ALT (IU/L) / AST(IU/L) / BUN / Cre: day 25, mean ± SEM", "experimental": "(§3) Using the H1975, MDA-MB-231, and KBtax xenograft models, tumors were established after inoculation into the right flanks of 6-week-old BALB/c nude mice (NARLabs, Taipei, Taiwan). After establishment of the tumors, vehicle and test compounds, which had been dissolved in DMSO, were each injected intraperitoneally into a separate group of animals three times per week. The body mass of each animal and tumor volumes were measured before each drug delivery. Tumor volume was calculated as 0.5W^2L (with W being the width of the smaller diameter and L being the length of the larger diameter). The animal experiment was carried out in accordance with the procedures and guidelines of the Institutional Animal Care and Use Committee, Institute of Biomedical Sciences, Academia Sinica."}, "H1975 xenograft tumor": {"tested_on": "H1975 xenograft tumor", "test": "H1975 xenograft tumor model", "assay_type": "in vivo, BALB/c nude mice", "conditions": "day 25", "experimental": "as §3"}, "SKOV-3": {"tested_on": "SKOV-3", "test": "Cell cytotoxicity assay (MTS), SKOV-3", "assay_type": "cell-based", "conditions": "Homo sapiens, SK-OV-3", "experimental": "as §1"}, "HDQP1/TAX": {"tested_on": "HDQP1/TAX", "test": "Cell cytotoxicity assay, HDQP1/TAX", "assay_type": "cell-based, human", "experimental": "as §1"}, "[2]": {"tested_on": "normal bronchial epithelial (NBE) cells", "test": "Cell cytotoxicity assay (MTS), normal bronchial epithelial cells", "assay_type": "cell-based", "conditions": "Homo sapiens, normal cell line NBE (printed NEB in Table 2)", "experimental": "as §1"}, "CEM/VBL": {"tested_on": "CEM/VBL", "test": "Cell cytotoxicity assay (MTS), CEM/VBL", "assay_type": "cell-based, human", "conditions": "CEM/VBL vs CCRF-CEM", "experimental": "as §1"}, "MDA-MB-231": {"tested_on": "MDA-MB-231", "test": "Cell cytotoxicity assay (MTS), MDA-MB-231", "assay_type": "cell-based", "conditions": "Homo sapiens, MDA-MB-231, 72 h", "experimental": "as §1"}, "HFB cells": {"tested_on": "HFB cells", "test": "Pro-apoptotic protein immunoblotting, HFB", "assay_type": "cell-based, human", "conditions": "24 to 72 h, normal HFB cells", "experimental": "as §2"}, "PC-3": {"tested_on": "PC-3", "test": "Cell cytotoxicity assay (MTS), PC-3", "assay_type": "cell-based", "conditions": "Homo sapiens", "experimental": "as §1"}, "HCT116": {"tested_on": "HCT116", "test": "Cell cytotoxicity assay (MTS), HCT116", "assay_type": "cell-based", "conditions": "Homo sapiens, HCT-116", "experimental": "as §1"}, "Ovcar-3": {"tested_on": "Ovcar-3", "test": "Cell cytotoxicity assay (MTS), Ovcar-3", "assay_type": "cell-based", "conditions": "Homo sapiens", "experimental": "as §1"}, "Colon205": {"tested_on": "Colon205", "test": "Cell cytotoxicity assay (MTS), Colon205", "assay_type": "cell-based", "conditions": "Homo sapiens", "experimental": "as §1"}, "KBvin": {"tested_on": "KBvin", "test": "Cell cytotoxicity assay (MTS), KBvin", "assay_type": "cell-based, human", "experimental": "as §1"}, "23 cancer cell lines": {"tested_on": "23 cancer cell lines", "test": "Cytotoxicity against 23 cancer cell lines", "assay_type": "cell-based, human", "experimental": "as §1"}, "KBtax": {"tested_on": "KBtax", "test": "Cell cytotoxicity assay (MTS), KBtax", "assay_type": "cell-based, human", "experimental": "as §1"}, "BT-549": {"tested_on": "BT-549", "test": "Cell cytotoxicity assay (MTS), BT-549", "assay_type": "cell-based", "conditions": "Homo sapiens, BT-549, 72 h", "experimental": "as §1"}, "HDQP1": {"tested_on": "HDQP1", "test": "Cell cytotoxicity assay, HDQP1", "assay_type": "cell-based", "conditions": "Homo sapiens, HDQ-P1; TNBC cell line HDQP1", "experimental": "as §1"}, "Molt4": {"tested_on": "Molt4", "test": "Cell cytotoxicity assay (MTS), Molt4", "assay_type": "cell-based", "conditions": "Homo sapiens, MOLT-4", "experimental": "as §1"}, "82T": {"tested_on": "82T", "test": "Cell cytotoxicity assay (MTS), 82T", "assay_type": "cell-based", "conditions": "Homo sapiens, 72 h", "experimental": "as §1"}}, "data": [{"smiles": "CCOC(=O)c1ccc2[nH]c(-c3ccccc3)cc(=O)c2c1", "note": "[AS1712, Ethyl 4-oxo-2-phenyl-1,4-dihydroquinoline-6-carboxylate]", "values": [{"measurement": "IC50", "setting": "CL1-0", "value": "0.016 ± 0.00248", "unit": "µM"}, {"measurement": "IC50", "setting": "SAS", "value": "0.078 ± 0.0104", "unit": "µM"}, {"measurement": "tubulin polymerization", "setting": "Purified porcine tubulin", "value": "directly inhibit tubulin polymerization"}, {"measurement": "IC50", "setting": "IGR-OV1", "value": "0.084 ± 0.00207", "unit": "µM"}, {"measurement": "cleavage of poly(ADP-ribose) polymerase (PARP) and caspase-3", "setting": "CL1-0 and H1975 cells", "value": "induced cleavage"}, {"measurement": "IC50", "setting": "OECM1", "value": "0.052 ± 0.00194", "unit": "µM"}, {"measurement": "ALT (IU/L)", "setting": "[1]; 4 mg/kg", "value": "40.8 ± 11", "unit": "IU/L"}, {"measurement": "AST(IU/L)", "setting": "[1]; 4 mg/kg", "value": "138.7 ± 58.6", "unit": "IU/L"}, {"measurement": "BUN", "setting": "[1]; 4 mg/kg", "value": "23.2 ± 2.5", "unit": "mg/dL"}, {"measurement": "Cre", "setting": "[1]; 4 mg/kg", "value": "0.26 ± 0.05", "unit": "mg/dL"}, {"measurement": "ALT (IU/L)", "setting": "[1]; 8 mg/kg", "value": "54.2 ± 16", "unit": "IU/L"}, {"measurement": "AST(IU/L)", "setting": "[1]; 8 mg/kg", "value": "170.8 ± 44.5", "unit": "IU/L"}, {"measurement": "BUN", "setting": "[1]; 8 mg/kg", "value": "20.9 ± 1.5", "unit": "mg/dL"}, {"measurement": "Cre", "setting": "[1]; 8 mg/kg", "value": "0.17 ± 0.02", "unit": "mg/dL"}, {"measurement": "body mass", "setting": "[1]; 4 or 8 mg/kg i.p. three times a week, end of experiment", "value": "non-toxic affected"}, {"measurement": "average tumor size", "setting": "H1975 xenograft tumor; 4 mg/kg intraperitoneally three times a week", "value": "871.3±106", "unit": "mm^3"}, {"measurement": "average tumor size", "setting": "H1975 xenograft tumor; 8 mg/kg intraperitoneally three times a week", "value": "587.2±67", "unit": "mm^3"}, {"measurement": "IC50", "setting": "SKOV-3", "value": "0.05 ± 0.00032", "unit": "µM"}, {"measurement": "RF, resistance factor (IC50 in resistant cell line/IC50 in parent cell line)", "setting": "HDQP1/TAX; HDQP1/TAX vs HDQP1", "value": 0.92}, {"measurement": "IC50", "setting": "HDQP1/TAX; Homo sapiens, HDQ-P1, Paclitaxel-resistant subline", "value": "0.063 ± 0.0163", "unit": "µM"}, {"measurement": "IC50", "setting": "[2]", "value": "> 10", "unit": "µM"}, {"measurement": "RF, resistance factor (IC50 in resistant cell line/IC50 in parent cell line)", "setting": "CEM/VBL", "value": 0.97}, {"measurement": "IC50", "setting": "MDA-MB-231", "value": "0.055 ± 0.00683", "unit": "µM"}, {"measurement": "PARP and caspase-3", "setting": "HFB cells", "value": "not affected"}, {"measurement": "IC50", "setting": "PC-3", "value": "0.045 ± 0.00177", "unit": "µM"}, {"measurement": "IC50", "setting": "HCT116", "value": "0.05 ± 0.00081", "unit": "µM"}, {"measurement": "IC50", "setting": "Ovcar-3", "value": "0.028 ± 0.00108", "unit": "µM"}, {"measurement": "IC50", "setting": "Colon205", "value": "0.057 ± 0.00517", "unit": "µM"}, {"measurement": "IC50", "setting": "KBvin; Homo sapiens, KBvin, P-gp overexpressing, vincristine-selected KB subline", "value": "0.037 ± 0.00077", "unit": "µM"}, {"measurement": "RF, resistance factor (IC50 in resistant cell line/IC50 in parent cell line)", "setting": "KBvin; KBvin vs KB", "value": 1}, {"measurement": "IC50", "setting": "23 cancer cell lines; Homo sapiens, lung, breast, ovarian, head and neck, colon, prostate, leukemia lines, read-out: IC50 values for the 23 cancer cell lines tested", "value": "0.016 to 0.084", "unit": "µM"}, {"measurement": "therapeutic window", "setting": "23 cancer cell lines; cancer cell lines vs normal cells", "value": "> 100", "unit": "fold"}, {"measurement": "IC50", "setting": "KBtax; Homo sapiens, KBtax, P-gp overexpressing, paclitaxel-selected KB subline", "value": "0.03 ± 0.00065", "unit": "µM"}, {"measurement": "RF, resistance factor (IC50 in resistant cell line/IC50 in parent cell line)", "setting": "KBtax; KBtax vs KB", "value": 0.81}, {"measurement": "IC50", "setting": "BT-549", "value": "0.033 ± 0.00151", "unit": "µM"}, {"measurement": "IC50", "setting": "HDQP1", "value": "0.068 ± 0.00538", "unit": "µM"}, {"measurement": "IC50", "setting": "Molt4", "value": "0.038 ± 0.00103", "unit": "µM"}, {"measurement": "IC50", "setting": "82T", "value": "0.035 ± 0.00067", "unit": "µM"}]}]}
